These results are taken from paper PMC8287927, “Evidence for a chromosome origin unwinding system broadly conserved in bacteria” (Nucleic Acids Research, 2021).

This test deals with T1, B. subtilis DnaA (Bacillus subtilis, UniProt P05648).
T1 construct: full-length, cloned in pSP015 with His14-SUMO-FLAG3 tag; His14-SUMO cleaved (FLAG3 kept where present); E. coli BL21(DE3)-pLysS
Nature of the test: competition with TNP-ATP fluorescence. The settings on record: pH 8, 5 mM magnesium acetate, 25 C; competitive with TNP-ATP, nucleotide binding pocket.

T1 sequence (P05648 whole entry): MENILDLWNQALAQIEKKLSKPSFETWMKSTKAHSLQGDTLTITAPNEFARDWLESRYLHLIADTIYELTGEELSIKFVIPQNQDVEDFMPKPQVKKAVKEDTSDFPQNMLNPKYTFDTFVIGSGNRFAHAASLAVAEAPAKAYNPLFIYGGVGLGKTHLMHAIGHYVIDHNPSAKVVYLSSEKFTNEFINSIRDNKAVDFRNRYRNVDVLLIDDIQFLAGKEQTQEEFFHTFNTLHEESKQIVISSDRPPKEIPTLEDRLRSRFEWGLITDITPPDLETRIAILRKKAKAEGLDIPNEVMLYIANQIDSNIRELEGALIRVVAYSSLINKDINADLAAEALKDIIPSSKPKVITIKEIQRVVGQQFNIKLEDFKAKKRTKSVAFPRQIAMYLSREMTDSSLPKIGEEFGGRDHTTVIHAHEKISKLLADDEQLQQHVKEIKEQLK

As to `Nc1ncnc2c1ncn2[C@@H]1O[C@H](COP(=O)(O)OP(=O)(O)OP(=O)(O)O)[C@@H](O)[C@H]1O` [ATP], the “competition with TNP-ATP fluorescence” value is “can be competed away by addition of unlabelled ATP”.
